Test: Human HepG2 cell viability assay in 384 well format
Format: toxicity, cell-based
Design: dose 125 nL, time 70.5 hour; concentration not given beside the values
Settings: HepG2 cells, read-out: Inhibition

| Compound | cytotoxicity at 70.5 h [%] |
| --- | --- |
| CCN1CCC(N2CCC(C(=O)N(C)C)CC2)CC1 | -5.59 |
| CCOc1ccc(S(=O)(=O)N(CCOC)Cc2ccoc2)cc1F | -11.6 |
| COc1cccc2ccn(CCC(=O)N3CCCC(C(=O)O)C3)c12 (stereo not given) | -22.2 |
| O=C(COCC(F)(F)F)N1CCCC(n2cccn2)C1 (stereo not given) | -8.85 |
| CS(=O)(=O)c1cnc(C2CCCC2)nc1C1CCCNC1 (stereo not given) | 1.49 |
| Cc1ccccc1CN1CCN(C(=O)c2ccn(C(C)(C)C)c2)CC1 | 16.3 |
| CN(Cc1ccc2c(c1)OCCO2)c1ncc(S(N)(=O)=O)s1 | 8.35 |
| Cc1cccc(CSc2ncc(Br)c(C(=O)O)n2)c1 | -8.53 |
| Cn1cccc1C(=O)N1CCCN(CCCc2ccccc2)CC1 | 7.34 |
| Cc1n[nH]c(C)c1CCNC(=O)Nc1ccc2c(c1)COC2 | -19 |
| CCOCCCNc1ncc(-c2cccc(F)c2)c(-c2nccn2C)n1 | -3.33 |
| CCn1nnnc1-c1cccc(NC(=O)COC2CCCC2)c1 | 6.8 |
| COC(=O)c1ccc(Cl)c(NS(=O)(=O)c2cn(C)cn2)c1 | 9.09 |
| CSc1c[nH]nc1NS(=O)(=O)c1cc(F)ccc1Cl | -0.455 |
| CCc1c(C)sc(NC(=O)CN2CCOCC2)c1C(=O)OC | -6.67 |
| COCCN1CCCC2(CCN(C(=O)c3cnc(O)cn3)C2)C1=O (stereo not given) | -6.54 |
| N#Cc1cccc(CN2Cc3nccn3CC(COCC3CC3)C2)c1 (stereo not given) | 8.65 |
| CS(=O)(=O)Cc1ccc(NC(=O)c2cccnc2)cc1F | -6.22 |
| Fc1cnc(N2CC3(CCN(CC4CC4)C3)C2)nc1 | -0.963 |
| CCCC(Cn1cnc(-c2ccccc2)c1-c1cncn1CC)N(C)C (stereo not given) | -0.815 |
| CN(C)Cc1cnc(C2CCN(C(=O)c3ccc(F)cc3)C2)[nH]1 (stereo not given) | -6.91 |
| Cc1ccc(NC2CCCN(CCc3ccccc3)C2)nn1 (stereo not given) | -3.93 |
| CCN(CC1CCOC1)C(=O)c1cccnc1N1CCOCC1 (stereo not given) | 0.841 |

| Compound | cytotoxicity at 70.5 h [%] |
| --- | --- |
| Cc1ccc(CN2CCC3(CC2)CC(c2cccnc2)CO3)s1 (stereo not given) | 2.33 |
| CC(C)(C)NC[C@@H]1CCC[C@@H]2CN(Cc3csnn3)C[C@@H]21 | -2.73 |
| Cn1ccc(NC2CCN(C3CC3)C2=O)n1 (stereo not given) | 11.7 |
| CC(Sc1nc(N)cc(N)n1)c1nc(C(C)(C)C)no1 (stereo not given) | -2.01 |
| COc1cc(CN(C)C(=O)NCc2ccccn2)ccc1SC | 15.9 |
| CC(C)CNC(=O)Nc1cccc(OCC#N)c1 | -7.35 |
| Cc1cc(C)n(CC2CCCN2C(=O)c2ccc3c(c2)nnn3C)n1 (stereo not given) | 1.66 |
| Cc1cnn(C2CCCN(C(=O)c3cccc(-n4cnnn4)c3)C2)c1 (stereo not given) | -3.6 |
| COC(=O)c1ccc(OCCn2cnc(C#N)n2)cc1 | -24.3 |
| Cc1ccc(-n2nc(C)c3c(C)cc(OCC(=O)NC(C)C)nc32)cc1 | -1.77 |
| CCc1cc(N(C)CCCO)n2nccc2n1 | -4.76 |
| Cc1nc(C2CCCN2CC(=O)N(C)Cc2ccsc2)no1 (stereo not given) | 12.6 |
| CCc1ccc2nc(C)cc(C(=O)N[C@@H]3CCCNC3)c2c1 | 2.34 |
| Cn1cc(CNCC(c2ccc(Cl)cc2)n2cccn2)cn1 (stereo not given) | -5.62 |
| Cn1cc(C(=O)N2CCC(c3nccn3Cc3ccncc3)CC2)cn1 | -7.19 |
| CCCn1cnnc1CN(C)C(=O)CCC(=O)Nc1cc(C)ccc1F | -6.48 |
| Cc1nsc(N2CCN(CC(=O)N(C3CC3)C(C)C3CC3)CC2)n1 (stereo not given) | 13.6 |
| CN(C)C(=O)[C@@H]1C[C@H]2OCC[C@H]2N(CCOc2ccc(Cl)cc2)C1 | -4.26 |
| Cc1nc(CN2CCC(C(=O)O)(n3ccc(C(C)C)n3)CC2)co1 | -0.222 |
| Clc1ccc(N2CCN(CCCN3CCCCC3)CC2)nc1 | 7.35 |
| Cc1cccc(-c2ccc(C(=O)NCCN3CCOCC3)c(=O)[nH]2)c1 | -6.01 |
| CCN1CCNC(=O)C12CCN(S(=O)(=O)c1ccc(F)cc1)CC2 | 0.587 |
| O=C(c1nc2sccn2c1-c1ncc[nH]1)N1CCCCC1 | -17.8 |

| Compound | cytotoxicity at 70.5 h [%] |
| --- | --- |
| CCn1nc(C)cc1C(=O)NCc1nc(C)cc(C)n1 | -13.2 |
| COc1ccc(Cl)cc1S(=O)(=O)N(C)CC(=O)Nc1ccon1 | -12 |
| CC1c2ncc(COc3cccnc3)n2CCN1C(=O)Cc1ccco1 (stereo not given) | -13.8 |
| NC(=O)c1cnc(NC2CCN(c3ccccc3)CC2)c(Cl)c1 | -1.28 |
| Cc1ccc(N2CC[C@H](OCC3CC3)[C@@H]2Cc2ccncc2)nn1 | -4.81 |
| O=C(c1ccccn1)N1CCC(Nc2cccnn2)CC1 | 2.46 |
| NC(=O)C1CCN(Cn2nc(-c3ccc(F)cc3)oc2=O)C1 (stereo not given) | -7.79 |
| OC(CN1CCCc2cc(OC(F)F)ccc21)Cn1cccn1 (stereo not given) | 12.9 |
| Cc1ccc(N2CCCc3sc(C(=O)NCCO)nc32)nn1 | -1.7 |
| CC1CCN(C(=O)CN2CCC(c3n[nH]c(C4CC4)n3)CC2)CC1 | -1.53 |
| COc1cc(C)ccc1OCCC(=O)N1CCC(N2CC=CC2)C1 (stereo not given) | -2.75 |
| Cc1cccc(CCNC(=O)CCS(=O)(=O)C2CCCC2)c1 | -5.57 |
| CN(C)c1ccc(C(=O)N2CCN(CC(C)(C)O)CC2)nn1 | -2.1 |
| Cc1cccc(-c2nccnc2C2CCCN(C)C2)c1 (stereo not given) | -2.49 |
| Cc1ccc(NC2CCN(C(=O)CN(C)C3CC3)CC2)nn1 | -1.46 |
| COc1c(CNC2CCN(c3ccccn3)CC2)c(C(C)C)nn1C | 5.04 |
| Cc1ccccc1OC1CCN(CC(=O)Nc2cnn(C)c2C)CC1 | -2.68 |
| Cc1nccn1-c1ccc(NS(=O)(=O)c2cnn(C)c2)cn1 | -4.84 |
| O=C(Cc1ccccn1)N1CCCC(c2nccn2CC2CCC2)C1 (stereo not given) | -24.3 |
| O=C(CC1CC1)N1CCC2(CC1)CN(Cc1cccnc1)C(=O)CO2 | -12.2 |
| CCc1nccn1C1CCCN(C(=O)c2cnn3ccc(C)nc23)C1 (stereo not given) | -9.27 |
| CC(=O)Nc1ccc2c(c1)CN(C(=O)c1ccco1)CC2 | 18.4 |
| O=C1CC(c2ccc(C(F)(F)F)cc2)c2c(n3ccsc3nc2=O)N1 (stereo not given) | -22.1 |

| Compound | cytotoxicity at 70.5 h [%] |
| --- | --- |
| Cc1sc2nc(C(F)(F)F)nc(N3CCN(S(C)(=O)=O)CC3)c2c1C | -4.32 |
| NC(=O)C1CCCN1Cc1ccccc1NC(=O)CC(F)(F)F (stereo not given) | -3.67 |
| OCCN1CCN(CC2(O)CCCCC2)CC1 | 0.0783 |
| COC(=O)COc1c(F)cc(Br)cc1C(C)=O | -2.7 |
| CNC(=O)[C@@H]1C[C@@H](N)CN1C(=O)CCSCc1ccc(F)cc1 | 7.46 |
| NC(=O)c1nc(-c2ccc(Cl)cc2Cl)oc1N | -3.66 |
| Cc1cc(NC(=O)C(C)N2CCN(c3ccccc3F)CC2)no1 (stereo not given) | 4.65 |
| CN1CCCc2sc(C(=O)NCc3cccnc3)nc21 | -10.4 |
| CC1(C)OCC(CNC(=O)c2cnn(-c3ccc(Cl)cc3)c2N)O1 (stereo not given) | 7.47 |
| COc1ccc(-c2nc(CCNCc3ccncc3)co2)cc1 | 1.89 |
| N#Cc1ccc(CNC(=O)NC2CCN(CC(F)F)CC2)cc1 | -9.49 |
| CC(C)OCCS(=O)(=O)N1CCN(Cc2cccn2C)CC1 | -8.85 |
| COc1ccnc(NC(=O)c2cscc2C)c1 | -2.28 |
| O=C(Cn1ccnc1)N1C[C@@H]2CC[C@H](Oc3ccccc3)[C@@H]2C1 | -3 |
| CNc1ccc(C2CN(c3nc(C)cc(C)n3)CCO2)nc1 (stereo not given) | -2.83 |
| COCc1cc(CC2(NCc3ccccc3Cl)COC2)no1 | -3.62 |
| COc1ccccc1NCC(=O)Nc1cnn(Cc2ccccn2)c1 | -3.02 |
| CCC(NC(=O)C1CCN(S(C)(=O)=O)CC1)c1ccc(OC)c(OC)c1 (stereo not given) | -7.44 |
| Cc1noc(-c2ccc(N3CCCC(C(=O)c4nccn4C)C3)nc2)n1 (stereo not given) | -8.49 |
| O=C(C1CCOC1)N1CCN(CC2CC2)c2ccccc21 (stereo not given) | -6.39 |
| CCS(=O)(=O)N1CCCC(c2nc3ccccc3n2C(C)C)C1 (stereo not given) | -3.94 |
| O=C1CCC2(CCCN(Cc3ccccc3F)C2)N1CC1CC1 (stereo not given) | -2.34 |
| CC(C1CC1)N(C)C(=O)c1ccc(-n2ncc(C#N)c2N)cc1 (stereo not given) | -6.01 |

| Compound | cytotoxicity at 70.5 h [%] |
| --- | --- |
| CCC(C(=O)NCc1ccncc1)N(c1ccc(F)cc1)S(C)(=O)=O (stereo not given) | -0.482 |
| Cc1cc(-c2cnc(N3CCNC(=O)C3)nc2-c2cccnc2C)on1 | -15.9 |
| CCCc1ccc(S(=O)(=O)NCCNC(=O)c2ccoc2)cc1 | -6.96 |
| CC(C)c1nc(C2CCCN2CCc2ccncc2)no1 (stereo not given) | 16.2 |
| COCCN1CCCC(O)(CN2CCN(c3cc(C)ccn3)CC2)C1=O (stereo not given) | -0.635 |
| O=C(CCNS(=O)(=O)c1ccc2c(c1)CCCC2)NCc1ccoc1 | -11.5 |
| Cc1occc1C(=O)N1C[C@@H]2CN(S(C)(=O)=O)CCO[C@@H]2C1 | 46.9 |
| CC1CN(C(=O)CN(Cc2ccccc2Br)C2CC2)CCO1 (stereo not given) | -0.289 |
| Cc1cnc(C(=O)Nc2cc(F)ccc2OCC2CCCO2)cn1 (stereo not given) | -6.23 |
| COCCN1CCN(CC(=O)N(C)Cc2ccc(F)cc2)CC1C (stereo not given) | 23.3 |
| COc1ccccc1OCCCN(C)c1cc(C)nc(N)n1 | -4.86 |
| CO[C@@H]1CC[C@H]2[C@H]1OCCN2S(=O)(=O)C1CC1 | -9.16 |
| CSCc1nc(CNC(=O)C2CCCN(CC(N)=O)C2)cs1 (stereo not given) | 11.4 |
| COc1ccccc1C(O)CNC(=O)Nc1cccnc1OC (stereo not given) | -3.1 |
| Cc1cnc(CN(C)C2CCN(CC(=O)Nc3nccs3)C2)o1 (stereo not given) | -5.94 |
| O=C(C1CCC1)N1CCC(c2ncc3c(n2)CCNC3)CC1 | -6.1 |
| Cn1c(CCNc2nccnc2C#N)nc2cc(Cl)ccc21 | -0.473 |
| O=C1[C@@H]2CN(C3CCOCC3)C[C@H]2CCN1CC1CC1 | -10.2 |
| O=C(CN1CCC(c2nnc(C(F)(F)F)o2)CC1)Nc1cccc(Cl)c1 | 19.3 |
| NC1(C(=O)NCC2CCCN(Cc3ccccc3F)C2)CCCC1 (stereo not given) | -1.04 |
| CCCc1n[nH]cc1C(=O)NCC1COc2cc(OC)ccc2C1 (stereo not given) | 14.2 |
| CCCOc1ccc(C(=O)Oc2cc(=O)n3cccc(C)c3n2)cc1 | -0.525 |
| Cn1cnc(-c2nc(C(=O)NC3CC3)c3ccccn23)c1 | -1.89 |

Reference: ChEMBL document CHEMBL3507680, “University of Dundee, Gates Library screen for HepG2 cell viability”
